# Measurements reported in patent US9708301B2, “Crystalline forms of afatinib monomaleate, preparation methods and pharmaceutical compositions thereof” (priority 2015, dated 2017).
# Key:
# Type in all cases: physicochemical
# [1] = Dynamic vapour sorption (DVS) isothermal adsorption; settings: relative humidity 10%-80%
# Protocol: Dynamic vapour sorption (DVS) data is collected using TA Instruments Q5000 TGA, the instrument control software is Thermal Advantage and the analytical software is Universal Analysis. Usually, 1-10 mg of the specimen is placed in a platinum pan, weight changes of the specimen are recorded by TA software within the process of the relative humidity change from 10% to 80% to 10%. Depending on specific situations, different sorption and desorption procedures may be used. An isothermal adsorption curve can be generated by the procession of software.
# [2] = Solubility in pure water (water added progressively until the sample completely dissolved); settings: 25° C. (room temperature)
# Protocol: Take 5 mg of the crystalline form of Afatinib dimaleate in the prior art prepared in preparation example 1 and the crystalline Form N of Afatinib monomaleate prepared in example 1 as the sample respectively, pure water was added into each sample progressively at 25° C. until the sample completely dissolved, then calculate the solubility of the sample according to the weight of the sample and water.
# [3] = Hygroscopicity of prior-art forms (researches by the present inventors)
smiles,measurement,setting,value
CN(C)C/C=C/C(=O)Nc1cc2c(Nc3ccc(F)c(Cl)c3)ncnc2cc1O[C@H]1CCOC1 [Afatinib dimaleate],weight change of the salt within the relative humidity range of 10%-80%,[1]; listed as Preparation Example 1,2.6%
same,solubility,[2]; listed as crystalline form of Afatinib dimaleate in the prior art,7.5 mg/mL
"CN(C)C/C=C/C(=O)Nc1cc2c(Nc3ccc(F)c(Cl)c3)ncnc2cc1O[C@H]1CCOC1 [Form B of Afatinib dimaleate, Afatinib dimaleate]",hygroscopicity,[3],serious hygroscopicity issues
CN(C)C/C=C/C(=O)Nc1cc2c(Nc3ccc(F)c(Cl)c3)ncnc2cc1O[C@H]1CCOC1 [Afatinib monomaleate],weight change of the salt within the relative humidity range of 10%-80%,[1]; listed as Example 1,2.1%
same,solubility,[2]; listed as crystalline Form N of Afatinib monomaleate,126.9 mg/mL
